pIC50: −log10 of the molar value. Like-named read-outs stand apart in the source and are kept apart here.
Tests used:
[1] = target: GSK3b (GST-full length GSK3b) (Homo sapiens (Human), UniProt P49841); experiment: GSK3b TR-FRET kinase assay; type: biochemical
How it was run: (§1)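 Full-length GST-tagged human enzyme (1 nM) is exposed to test compound for 30 min before substrates are added. Phosphorylation of a primed biotinylated glycogen synthase peptide proceeds 100 min at room temperature at low ATP (4 μM α; 2 μM β) or high ATP (1 mM). Product is quantified by TR-FRET.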

[2] = target: GSK3α (GST-full length GSK3α) (Homo sapiens (Human), UniProt P49840); experiment: GSK3α TR-FRET kinase assay; type: biochemical
GSK3α (GST-full length GSK3α), sequence (P49840 whole entry): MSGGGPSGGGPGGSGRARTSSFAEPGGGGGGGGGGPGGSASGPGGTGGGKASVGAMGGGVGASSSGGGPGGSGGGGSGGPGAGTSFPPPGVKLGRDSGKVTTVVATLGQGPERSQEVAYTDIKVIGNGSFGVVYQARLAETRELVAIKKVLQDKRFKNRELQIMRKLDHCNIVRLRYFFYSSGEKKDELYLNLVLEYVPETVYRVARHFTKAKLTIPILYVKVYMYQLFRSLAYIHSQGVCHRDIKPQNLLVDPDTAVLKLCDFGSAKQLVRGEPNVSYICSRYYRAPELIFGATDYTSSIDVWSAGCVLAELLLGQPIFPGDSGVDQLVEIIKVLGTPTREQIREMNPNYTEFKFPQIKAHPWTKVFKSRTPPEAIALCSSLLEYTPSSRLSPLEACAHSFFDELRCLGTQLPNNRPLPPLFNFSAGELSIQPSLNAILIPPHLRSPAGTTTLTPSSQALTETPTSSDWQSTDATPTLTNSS
How it was run: as §1

[3] = 1 nM GSK3b, 2 μM ATP, 30 minute preincubation, Table 16, read-out: GSK3-B TR-FRET BIOCHEMICAL (TR-FRET)
[4] = 1 nM GSK3α, 4 μM ATP, 30 minute preincubation, Table 16, read-out: GSK3-A TR-FRET BIOCHEMICAL (TR-FRET)
[5] = 1 nM GSK3b, 2 μM ATP, 30 minute preincubation, geometric mean, read-out: GSK3-B TR-FRET BIOCHEMICAL (TR-FRET), GMean, IC50
[6] = 1 nM GSK3α, 4 μM ATP, 30 minute preincubation, geometric mean, read-out: GSK3-A TR-FRET BIOCHEMICAL (TR-FRET), GMean, IC50
[7] = 1 nM GSK3b, 2 μM ATP, 30 minute preincubation, read-out: GSK3-B TR-FRET BIOCHEMICAL (TR-FRET), IC50
[8] = 1 nM GSK3α, 4 μM ATP, 30 minute preincubation, read-out: GSK3-A TR-FRET BIOCHEMICAL (TR-FRET), IC50
[9] = 1 nM GSK3b, 2 μM ATP, 30 minute preincubation, Table 16, read-out: GSK3-B TR-FRET BIOCHEMICAL (TR-FRET), IC50
[10] = 1 nM GSK3α, 4 μM ATP, 30 minute preincubation, Table 16, read-out: GSK3-A TR-FRET BIOCHEMICAL (TR-FRET), IC50
[11] = read-out: GSK3-B (TR-FRET 1 mM ATP), GMean, IC50, 1 mM ATP, geometric mean
[12] = read-out: GSK3-A (TR-FRET 1 mM ATP), GMean, IC50, 1 mM ATP, geometric mean

GSK3b (GST-full length GSK3b), sequence (P49841 whole entry): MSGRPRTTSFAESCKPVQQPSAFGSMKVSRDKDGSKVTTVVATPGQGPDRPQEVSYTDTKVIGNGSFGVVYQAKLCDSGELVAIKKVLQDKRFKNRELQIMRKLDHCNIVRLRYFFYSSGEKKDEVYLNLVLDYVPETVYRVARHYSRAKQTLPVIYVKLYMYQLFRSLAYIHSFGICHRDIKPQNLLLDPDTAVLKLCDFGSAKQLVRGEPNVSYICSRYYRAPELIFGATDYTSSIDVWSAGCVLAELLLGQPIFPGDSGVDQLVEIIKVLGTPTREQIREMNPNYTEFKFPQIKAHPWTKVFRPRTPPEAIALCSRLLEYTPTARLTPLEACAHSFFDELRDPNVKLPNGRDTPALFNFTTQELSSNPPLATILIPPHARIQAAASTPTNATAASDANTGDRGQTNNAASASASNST

## CCn1nc(C)cc1S(=O)(=O)N1CCC2(CC1)C1=C(CC(C)(C)CC1=O)Nc1n[nH]cc12 [Compound 947609]
[1]; [3]
  pIC50: 6.00 to 7.00
[2]; [4]
  pIC50: ≥ 7.00

## CCC1(c2cccc(-c3cncn3C)c2)C2=C(CC(C)(C)CC2=O)Nc2n[nH]cc21 (centres unmarked) [Compound 945620]
[1]; [3]
  pIC50: 5.30 to 6.00
[2]; [4]
  pIC50: 6.00 to 7.00

## CCC1(c2cccc(-c3ccnn3C)c2)C2=C(CC(C)(COC)NC2=O)Nc2n[nH]cc21 (centres unmarked) [Compound 947907]
[1]; [5]
  pIC50: < 5.30
[2]; [6]
  pIC50: 5.30 to 6.00

## CCC1(c2cccc(Br)c2)C2=C(CC(C)(C)NC2=O)Nc2n[nH]cc21 (centres unmarked) [Compound 913439]
[1]; [7]
  pIC50: 6.00 to 7.00
[2]; [8]
  pIC50: ≥ 7.00

## CCC1(c2cccc(N3CCOCC3)c2)C2=C(CC(C)(C)CC2=O)Nc2n[nH]c(C)c21 (centres unmarked) [Compound 874312]
[1]; [5]
  pIC50: ≥ 7.00
[2]; [6]
  pIC50: ≥ 7.00

## CCC1(c2cccc(C(F)(F)F)c2)C2=C(CC(c3ccccc3)NC2=O)Nc2n[nH]cc21 (centres unmarked) [Compound 917284]
[1]; [7]
  pIC50: 5.30 to 6.00
[2]; [8]
  pIC50: 6.00 to 7.00

## CCC1(c2cccc(-c3cn(C)nc3C(F)(F)F)c2)C2=C(CC(C)(C)NC2=O)Nc2n[nH]cc21 (centres unmarked) [Compound 949266]
[1]; [9]
  pIC50: 6.00 to 7.00
[2]; [10]
  pIC50: ≥ 7.00

## CCC1(c2cccc(N(C)c3cccnc3)c2)C2=C(CC(C)(C)CC2=O)Nc2n[nH]cc21 (centres unmarked) [Compound 874298]
[1]; [5]
  pIC50: ≥ 7.00
[2]; [6]
  pIC50: ≥ 7.00

## CCC1(c2cccc(-c3ccnc(OC(F)(F)F)c3)c2)C2=C(CC(C)(C)CC2=O)Nc2n[nH]cc21 (centres unmarked) [Compound 943988]
[1]; [3]
  pIC50: 5.30 to 6.00
[2]; [4]
  pIC50: 6.00 to 7.00

## CCC1(c2cccc(N3CCCCC3)c2)C2=C(CC(C)(C)CC2=O)Nc2n[nH]cc21 (centres unmarked) [Compound 801320]
[1]; [5]
  pIC50: 6.00 to 7.00
[2]; [6]
  pIC50: 6.00 to 7.00

## CCC1(c2cccc(C(F)(F)F)c2)C2=C(CCNC2=O)Nc2n[nH]cc21 (centres unmarked) [Compound 912622]
[1]; [7]
  pIC50: 5.30 to 6.00
[2]; [8]
  pIC50: 6.00 to 7.00

## CC1(C)CC(=O)C2=C(C1)Nc1n[nH]cc1[C@]21C[C@H](n2cccn2)C1 [Compound 884005]
[1]; [3]
  pIC50: ≥ 7.00
[2]; [4]
  pIC50: ≥ 7.00

## CCC1(c2cccc(N3CC(C)C(C)C3)c2)C2=C(CC(C)(C)CC2=O)Nc2n[nH]cc21 (centres unmarked) [Compound 924504]
[1]; [9]
  pIC50: 6.00 to 7.00
[2]; [10]
  pIC50: 6.00 to 7.00

## CC[C@@]1(c2cccc(-c3cnn(CCN4CCCC4)c3)c2)C2=C(CC(C)(C)NC2=O)Nc2n[nH]cc21 [Compound 949510]
[1]; [9]
  pIC50: < 5.30
[2]; [10]
  pIC50: < 5.30

## CC[C@@]1(c2cccc(C(F)(F)F)c2)C2=C(C[C@]3(CCNC3=O)CC2=O)Nc2n[nH]cc21 [Compound 950332]
[1]; [3]
  pIC50: < 5.30
[2]; [4]
  pIC50: < 5.30

## CC[C@]1(c2cccc(-c3ccnc(C)c3C)c2)C2=C(CC(C)(C)NC2=O)Nc2n[nH]c(C(F)(F)F)c21 [Compound 948181]
[1]; [5]
  pIC50: 6.00 to 7.00
[2]; [6]
  pIC50: 6.00 to 7.00

## CCC1(c2cccc(C(F)(F)F)c2)C2=C(CC3(CCN(C)C3=O)CC2=O)Nc2n[nH]cc21 (centres unmarked) [Compound 950330]
[1]; [3]
  pIC50: < 5.30
[2]; [4]
  pIC50: 6.00 to 7.00

## CC1(C)CC(=O)C2=C(C1)Nc1n[nH]cc1C21CN(C2CCOCC2)C1 [Compound 932651]
[1]; [9]
  pIC50: < 5.30
[2]; [10]
  pIC50: < 5.30

## CCC1(c2cccc(-c3ccnc(OC(C)C)c3)c2)C2=C(CC(C)(C)CC2=O)Nc2n[nH]cc21 (centres unmarked) [Compound 932626]
[1]; [9]
  pIC50: 6.00 to 7.00
[2]; [10]
  pIC50: 6.00 to 7.00

## CC[C@]1(c2cccc(C(F)(F)F)c2)C2=C(Nc3n[nH]cc31)[C@H](C)N(Cc1ccccc1)C2=O [Compound 930333]
[1]; [7]
  pIC50: < 5.30
[2]; [8]
  pIC50: < 5.30

## CC[C@]1(c2cccc(C(F)(F)F)c2)C2=C(Nc3n[nH]cc31)[C@H](C)NC2=O [Compound 945381]
[1]; [7]
  pIC50: < 5.30
[2]; [8]
  pIC50: < 5.30

## CC1(C)CC(=O)C2=C(C1)Nc1n[nH]cc1C21CCN(S(=O)(=O)c2ccc3c(c2)CCO3)CC1 [Compound 913251]
[1]; [3]
  pIC50: ≥ 7.00
[2]; [4]
  pIC50: ≥ 7.00

## CC[C@]1(c2cccc(-c3ccncc3C)c2)C2=C(CC(C)(C)NC2=O)Nc2[nH]nc(C(F)(F)F)c21 [Compound 947812]
[1]; [5]
  pIC50: ≥ 7.00
[2]; [6]
  pIC50: ≥ 7.00

## CC1(C)CC(=O)C2=C(C1)Nc1n[nH]cc1[C@]21CCN(S(=O)(=O)c2ccccc2)C1 [Compound 943485]
[1]; [3]
  pIC50: ≥ 7.00
[1]; GSK3-B (TR-FRET 1 mM ATP), GMean, IC50, 1 mM ATP, geometric mean
  pIC50: 5.30 to 6.00
[2]; [4]
  pIC50: ≥ 7.00
[2]; GSK3-A (TR-FRET 1 mM ATP), GMean, IC50, 1 mM ATP, geometric mean
  pIC50: 6.00 to 7.00

## CCC1(c2cccc(C(F)(F)F)c2)C2=C(CCN(c3cncnc3)C2=O)Nc2n[nH]cc21 (centres unmarked) [Compound 948380]
[1]; [5]
  pIC50: < 5.30
[2]; [6]
  pIC50: 6.00 to 7.00

## CC[C@]1(c2cc(-c3ccnc(C)c3)ccc2F)C2=C(CC(C)(C)CC2=O)Nc2n[nH]cc21 [Compound 909213]
[1]; [9]
  pIC50: < 5.30
[2]; [10]
  pIC50: < 5.30

## CC1(C)CC(=O)C2=C(C1)Nc1n[nH]cc1C21CN(S(=O)(=O)c2ccccn2)C1 [Compound 913262]
[1]; [3]
  pIC50: ≥ 7.00
[2]; [4]
  pIC50: ≥ 7.00

## CC[C@]1(c2cccc(-c3ccncc3)c2)C2=C(Nc3n[nH]cc31)[C@@H](F)C(C)(C)CC2=O [Compound 959344]
[1]; [3]
  pIC50: < 5.30
[2]; [4]
  pIC50: < 5.30

## CC1(C)CC(=O)C2=C(C1)Nc1n[nH]cc1C21COC2(CN(C(=O)CC3CCCCC3)C2)C1 (centres unmarked) [Compound 947305]
[1]; [7]
  pIC50: ≥ 7.00
[2]; [8]
  pIC50: ≥ 7.00

## CCC1(c2cccc(-c3ccnc(C)c3C)c2)C2=C(CC(C)(C)CC2=O)Nc2n[nH]cc21 (centres unmarked) [Compound 943516]
[1]; [3]
  pIC50: ≥ 7.00
[1]; [11]
  pIC50: 5.30 to 6.00
[2]; [4]
  pIC50: ≥ 7.00
[2]; [12]
  pIC50: ≥ 7.00

## C[C@@H]1C[C@@]2(CCO1)C1=C(CC(C)(C)CC1=O)Nc1n[nH]cc12 [Compound 924308]
[1]; [3]
  pIC50: 6.00 to 7.00
[2]; [4]
  pIC50: 6.00 to 7.00

## CCC1(c2cccc(C(F)(F)F)c2)C2=C(CCN(c3ccccc3)C2=O)Nc2n[nH]cc21 (centres unmarked) [Compound 929474]
[1]; [7]
  pIC50: 6.00 to 7.00
[2]; [8]
  pIC50: ≥ 7.00

## CC[C@]1(c2cccc(N(C)c3cnccn3)c2)C2=C(CC(C)(C)CC2=O)Nc2n[nH]cc21 [Compound 915340]
[1]; [9]
  pIC50: 5.30 to 6.00
[2]; [10]
  pIC50: 6.00 to 7.00

## CCC1(c2cccc(-c3cncn3C)c2)C2=C(CC(C)(C)NC2=O)Nc2n[nH]c(C(F)(F)F)c21 (centres unmarked) [Compound 949010]
[1]; [5]
  pIC50: ≥ 7.00
[1]; [11]
  pIC50: ≥ 7.00
[2]; [6]
  pIC50: ≥ 7.00
[2]; [12]
  pIC50: ≥ 7.00

## Cc1[nH]nc2c1C1(CCCC1)C1=C(CC(C)(C)CC1=O)N2 [Compound 786072]
[1]; [3]
  pIC50: ≥ 7.00
[2]; [4]
  pIC50: ≥ 7.00

## CC[C@@]1(c2cccc(N(C)c3ncccn3)c2)C2=C(CC(C)(C)C2=O)Nc2n[nH]cc21 [Compound 952212]
[1]; [9]
  pIC50: 6.00 to 7.00
[1]; [11]
  pIC50: < 5.30
[2]; [10]
  pIC50: ≥ 7.00
[2]; [12]
  pIC50: 6.00 to 7.00

## CCC1(c2cccc(C3CN(C(C)=O)C3)c2)C2=C(CC(C)(C)CC2=O)Nc2n[nH]cc21 (centres unmarked) [Compound 949131]
[1]; [3]
  pIC50: 5.30 to 6.00
[2]; [4]
  pIC50: 6.00 to 7.00

## CCC1(c2cccc(-c3cnn(CCOC)c3)c2)C2=C(CC(C)(C)CC2=O)Nc2n[nH]c(C)c21 (centres unmarked) [Compound 883996]
[1]; [9]
  pIC50: 6.00 to 7.00
[2]; [10]
  pIC50: ≥ 7.00

## CC1(C)CC(=O)C2=C(C1)Nc1n[nH]cc1C21CCC(S(C)(=O)=O)CC1 (centres unmarked) [Compound 913356]
[1]; [3]
  pIC50: ≥ 7.00
[2]; [4]
  pIC50: ≥ 7.00

## CCC1(c2cccc(Cl)c2)C2=C(CC(C)(C)CC2=O)Nc2n[nH]c(Br)c21 (centres unmarked) [Compound 801314]
[1]; [11]
  pIC50: 6.00 to 7.00
[2]; [12]
  pIC50: ≥ 7.00

## CC[C@]1(c2cccc(-c3c(C)cnc4c(C)cccc34)c2)C2=C(CC(C)(C)NC2=O)Nc2n[nH]cc21 [Compound 952760]
[1]; [9]
  pIC50: < 5.30
[2]; [10]
  pIC50: < 5.30

## COc1ccc(S(=O)(=O)N2CCC3(CC2)C2=C(CC(C)(C)CC2=O)Nc2n[nH]cc23)cc1F [Compound 947478]
[1]; [3]
  pIC50: ≥ 7.00
[2]; [4]
  pIC50: ≥ 7.00

Reference: US20250313563A1, “GLYCOGEN SYNTHASE KINASE 3 INHIBITORS AND USES THEREOF” (The Broad Institute, Inc., priority 2022, published 2025)
